Counter-ions that a name gives are not always drawn.
Key:
AXL = target: T1, AXL (Homo sapiens, UniProt P30530); assay: TR-FRET kinase activity assay, AXL; type: biochemical; details: ATP at Km, 60 minutes
T1 sequence (P30530 26-894): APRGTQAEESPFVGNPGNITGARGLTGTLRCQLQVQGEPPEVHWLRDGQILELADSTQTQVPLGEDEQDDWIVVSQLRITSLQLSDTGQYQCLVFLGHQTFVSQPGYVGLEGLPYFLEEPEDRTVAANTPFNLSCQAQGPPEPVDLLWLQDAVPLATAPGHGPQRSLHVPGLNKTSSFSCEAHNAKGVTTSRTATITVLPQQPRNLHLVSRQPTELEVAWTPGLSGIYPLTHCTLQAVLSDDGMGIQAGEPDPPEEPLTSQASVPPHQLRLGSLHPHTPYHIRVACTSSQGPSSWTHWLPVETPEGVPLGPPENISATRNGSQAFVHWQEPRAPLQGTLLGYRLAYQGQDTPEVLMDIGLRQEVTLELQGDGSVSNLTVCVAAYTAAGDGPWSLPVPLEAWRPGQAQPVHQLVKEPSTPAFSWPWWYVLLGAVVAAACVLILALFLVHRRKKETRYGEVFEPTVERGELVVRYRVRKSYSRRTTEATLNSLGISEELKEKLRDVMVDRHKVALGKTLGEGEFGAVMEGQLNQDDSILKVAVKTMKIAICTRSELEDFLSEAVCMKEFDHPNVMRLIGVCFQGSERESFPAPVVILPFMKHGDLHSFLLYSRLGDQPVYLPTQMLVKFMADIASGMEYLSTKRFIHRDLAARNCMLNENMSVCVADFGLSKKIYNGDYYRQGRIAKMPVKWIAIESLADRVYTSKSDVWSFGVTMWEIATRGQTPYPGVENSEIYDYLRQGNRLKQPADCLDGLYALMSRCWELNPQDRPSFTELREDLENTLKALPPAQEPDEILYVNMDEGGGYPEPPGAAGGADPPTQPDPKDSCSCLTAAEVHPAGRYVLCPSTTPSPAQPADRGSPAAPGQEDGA
Summary of the method: (§1)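 TR-FRET signal from Eu-labeled phospho-site antibody bound to tyrosine-phosphorylated fluorescent peptide; inhibition lowers signal, giving IC50. Reactions: 50 mM HEPES pH 7.5, 10 mM MgCl2, 1 mM EGTA, 0.01% Brij 35, 1 mM DTT, ATP at Km per enzyme, 60 min, RT.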

MERTK = target: T2, MERTK (Homo sapiens, UniProt Q12866); assay: TR-FRET kinase activity assay, MERTK; type: biochemical; details: for IC50: TR-FRET activity assay, ATP at Km, 60 minutes, read-out: Mer IC50; for Mer/Flt3 ratio (FLT3 IC50/Mer IC50): ratio calculated as FLT3 IC50/Mer IC50
T2 sequence (Q12866 21-999): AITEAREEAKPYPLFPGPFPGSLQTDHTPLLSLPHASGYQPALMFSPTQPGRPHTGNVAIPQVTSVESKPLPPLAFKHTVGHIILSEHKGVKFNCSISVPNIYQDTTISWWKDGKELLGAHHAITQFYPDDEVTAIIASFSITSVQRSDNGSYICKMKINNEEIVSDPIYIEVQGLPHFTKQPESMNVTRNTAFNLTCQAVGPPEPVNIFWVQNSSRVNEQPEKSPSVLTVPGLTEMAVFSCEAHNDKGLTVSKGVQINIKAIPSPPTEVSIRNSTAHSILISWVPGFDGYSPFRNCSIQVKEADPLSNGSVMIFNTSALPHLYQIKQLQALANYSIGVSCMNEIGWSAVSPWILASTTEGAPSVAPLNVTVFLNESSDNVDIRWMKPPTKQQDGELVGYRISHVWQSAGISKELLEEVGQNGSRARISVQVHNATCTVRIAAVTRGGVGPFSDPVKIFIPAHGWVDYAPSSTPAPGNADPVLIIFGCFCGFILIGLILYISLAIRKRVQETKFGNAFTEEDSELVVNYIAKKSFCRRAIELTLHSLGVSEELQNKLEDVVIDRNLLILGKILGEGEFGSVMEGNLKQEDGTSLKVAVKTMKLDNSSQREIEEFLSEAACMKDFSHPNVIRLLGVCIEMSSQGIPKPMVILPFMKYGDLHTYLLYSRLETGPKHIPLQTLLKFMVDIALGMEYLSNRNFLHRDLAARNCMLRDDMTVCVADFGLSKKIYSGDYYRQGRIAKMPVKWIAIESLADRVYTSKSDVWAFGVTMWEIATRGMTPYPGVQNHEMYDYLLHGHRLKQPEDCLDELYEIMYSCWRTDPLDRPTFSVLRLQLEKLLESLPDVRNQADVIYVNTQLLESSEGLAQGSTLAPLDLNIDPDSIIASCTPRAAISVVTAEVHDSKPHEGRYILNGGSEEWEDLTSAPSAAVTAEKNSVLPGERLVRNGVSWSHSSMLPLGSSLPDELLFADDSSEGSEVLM
Summary of the method: as §1

SMILES	IC50 (AXL) [nM]	IC50 (MERTK) [nM]	Mer/Flt3 ratio (FLT3 IC50/Mer IC50) (MERTK)
CCCCNc1ncc2c(=O)n(-c3ccc(CN4CCOCC4)cc3)cc([C@H]3CC[C@H](O)CC3)c2n1 [Compound 101]	100 to 1000	≤ 100	+ (a ratio of >2.0 and <10)
CCCCNc1ncc2c(NCc3ccc(F)cc3)ncc([C@H]3CC[C@H](O)CC3)c2n1 [Compound 103, 4-[2-(butylamino)-5-[(4-fluorophenyl)methylamino]pyrido[4,3-d]pyrimidin-8-yl]cyclohexanol hydrochloride]	100 to 1000	≤ 100	+ (a ratio of >2.0 and <10)
CCCCNc1ncc2c(OC3CCOCC3)ncc([C@H]3CC[C@H](O)CC3)c2n1 [Compound 104, (1r,4r)-4-(2-(butylamino)-5-((tetrahydro-2H-pyran-4-yl)oxy)pyrido[4,3-d]pyrimidin-8-yl)cyclohexanol]	≤ 100	≤ 100	+ (a ratio of >2.0 and <10)
CCCCNc1ncc2c(OC)ncc([C@H]3CC[C@H](O)CC3)c2n1 [Compound 127]	≤ 100	≤ 100	+ (a ratio of >2.0 and <10)
CCCC(C)Nc1ncc2c(=O)n(C3CCN(C(C)=O)CC3)cc([C@H]3CC[C@H](O)CC3)c2n1 (stereo partly drawn) [Compound 128, 6-(1-acetylpiperidin-4-yl)-8-((1r,4r)-4-hydroxycyclohexyl)-2-(pentan-2-ylamino)pyrido[4,3-d]pyrimidin-5(6H)-one hydrochloride]	100 to 1000	≤ 100	+++ (a ratio of >100)
CCCCNc1ncc2c(OC3CCNCC3)ncc([C@H]3CC[C@H](O)CC3)c2n1 [Compound 129]	≤ 100	≤ 100	+ (a ratio of >2.0 and <10)
CCCCC[C@H](C)Nc1ncc2c(OC3CCNCC3)ncc([C@H]3CC[C@H](O)CC3)c2n1 [Compound 130]	≤ 100	≤ 100	+++ (a ratio of >100)
CCCCNc1ncc2c(OC3CCN(C)CC3)ncc([C@H]3CC[C@H](O)CC3)c2n1 [Compound 131]	≤ 100	≤ 100	+ (a ratio of >2.0 and <10)
O[C@H]1CC[C@H](c2cnc(OC3CCOCC3)c3cnc(NC4CCCC4)nc32)CC1 [Compound 132]	≤ 100	≤ 100	++ (a ratio of between 10 and 100)
CCCC(C)Nc1ncc2c(OC3CCOCC3)ncc([C@H]3CC[C@H](O)CC3)c2n1 (stereo partly drawn) [Compound 133]	100 to 1000	≤ 100	+++ (a ratio of >100)
O[C@H]1CC[C@H](c2cnc(OC3CCOCC3)c3cnc(Nc4ccc(Cl)cc4)nc32)CC1 [Compound 134, (1r,4r)-4-(2-((4-chlorophenyl)amino)-5-((tetrahydro-2H-pyran-4-yl)oxy)pyrido[4,3-d]pyrimidin-8-yl)cyclohexan-1-ol]	≤ 100	≤ 100	+ (a ratio of >2.0 and <10)
CC(C)Nc1ncc2c(OC3CCNCC3)ncc([C@H]3CC[C@H](O)CC3)c2n1 [Compound 135]	≤ 100	≤ 100	+++ (a ratio of >100)
O[C@H]1CC[C@H](c2cnc(OC3CCNCC3)c3cnc(N[C@H]4CCOC4)nc32)CC1 [Compound 136]	100 to 1000	≤ 100	++ (a ratio of between 10 and 100)
C[C@@H](CO)Nc1ncc2c(OC3CCOCC3)ncc([C@H]3CC[C@H](O)CC3)c2n1 [Compound 137]	1000 to 10000	100 to 1000	++ (a ratio of between 10 and 100)
CCCC(C)Nc1ncc2c(=O)n(C3CCN(S(C)(=O)=O)CC3)cc([C@H]3CC[C@@H](O)CC3)c2n1 (stereo partly drawn) [Compound 138]	100 to 1000	≤ 100	+++ (a ratio of >100)
CCCC(C)Nc1ncc2c(O[C@H]3CC[C@H](O)CC3)ncc([C@H]3CC[C@H](O)CC3)c2n1 (stereo partly drawn) [Compound 139]	100 to 1000	≤ 100	+++ (a ratio of >100)
CCC(C)Nc1ncc2c(OC3CCOCC3)ncc([C@H]3CC[C@H](O)CC3)c2n1 (stereo partly drawn) [Compound 140]	100 to 1000	≤ 100	+++ (a ratio of >100)
CCCC(C)Nc1ncc2c(OC3CCS(=O)(=O)CC3)ncc([C@H]3CC[C@H](O)CC3)c2n1 (stereo partly drawn) [Compound 141]	100 to 1000	≤ 100	+++ (a ratio of >100)
CCCC(C)Nc1ncc2c(OC3CCS(=O)(=O)CC3)ncc([C@H]3CC[C@@H](O)CC3)c2n1 (stereo partly drawn) [Compound 142]	1000 to 10000	≤ 100	++ (a ratio of between 10 and 100)
CCCC(C)Nc1ncc2c(OC3CCN(S(C)(=O)=O)CC3)ncc([C@H]3CC[C@H](O)CC3)c2n1 (stereo partly drawn) [Compound 143]	100 to 1000	≤ 100	+++ (a ratio of >100)
CC1(C)CC(Nc2ncc3c(OC4CCOCC4)ncc([C@H]4CC[C@H](O)CC4)c3n2)C1 [Compound 144]	100 to 1000	≤ 100	+ (a ratio of >2.0 and <10)
COC[C@@H](C)Nc1ncc2c(OC3CCOCC3)ncc([C@H]3CC[C@H](O)CC3)c2n1 [Compound 145]	1000 to 10000	100 to 1000	++ (a ratio of between 10 and 100)
CCCC(C)Nc1ncc2c(N(C)C3CCN(C)CC3)ncc([C@H]3CC[C@H](O)CC3)c2n1 (stereo partly drawn) [Compound 146]	1000 to 10000	≤ 100	++ (a ratio of between 10 and 100)
CCCC(C)Nc1ncc2c(OC3CCC(OC)CC3)ncc([C@H]3CC[C@H](O)CC3)c2n1 (stereo partly drawn) [Compound 147]	100 to 1000	≤ 100	+++ (a ratio of >100)

— patent US20200291018A1, “TAM KINASE INHIBITORS” (SYROS PHARMACEUTICALS, INC., priority 2017, published 2020)
